# In patent US7589077B2, “Antiviral nucleosides” (priority 2001, dated 2009):
# pEC50: −log10 of the molar value. Where two headings read alike, the source gives them in different places.
# What was measured:
# [1] = system: HSV-1 (KOS) HSV-TK+; assay: HSV-1 (KOS) HSV-TK+ antiviral assay; type: cell-based, Herpes simplex virus type-1; settings: Table 4
# Protocol: (§1) Cytopathic effect (CPE) inhibition assays for HSV-1, HSV-2, HCMV and VZV were performed as follows: Low passage human foreskin fibroblasts (HFF) cells were seeded into 96 well tissue culture plates 24 h prior to use at a cell concentration of 2.5×10^4 cells per mL in 0.1 mL of minimal essential medium (MEM) supplemented with 10% fetal bovine serum (FBS). The cells were then incubated for 24 h at 37° C. in a CO2 incubator. After incubation, the medium was removed and 100 μL of MEM containing 2% FBS was added to all but the first row. In the first row, 125 μL of experimental drug was added in triplicate wells. Medium alone was added to both cell and virus control […]. After incubation, the medium was removed and 100 μl of MEM containing 2% FBS was added to all but the first row. Medium alone was added to both cell and virus control wells. 125 μl of Experimental drug was added in triplicate wells. The drug in the first row of wells was then diluted serially 1:5 throughout the remaining wells by transferring 25 μL using the Cetus Liquid Handling Machine. After dilution of drugs, 100 μL of the appropriate virus concentration was added to each well, excluding the cell control wells which received 100 μL of MEM. For HSY-1 and HSV-2 assays, the virus concentration utilized was 1000 PFU's per well. For CMV and VZV assays, the virus concentration added was 2500 PFU's per well. The plates were then incubated at 37° C. in a CO2 incubator for 3 days for HSV-1 and HSV-2, 10 days for VZV, or 14 days for CMV. After the incubation period, media was aspirated and the cells stained with a 0.1% crystal violet solution for 30 min. The stain was then removed and the plates were allowed to dry 24 h and then read on a Skatron Plate Reader at 620 nm.
# [2] = system: Epstein-Barr Virus (EBV); assay: EBV immunofluorescence assay in DAUDI cells (P3HR-1 strain); type: cell-based; settings: for EC90: human gammaherpesvirus 4; for EBV EC50: Table 4
# Protocol: The immunofluorescence assay, using monoclonal antibodies, for Epstein-Barr Virus (EBV) was performed as follows: DAUDI cells were infected with the P3HR-1 strain of EBV and the test drug was added after adsorption (45 min. at 37° C.) and washing of the cell cultures. These cultures were then incubated for 2 days in complete medium to allow viral gene expression. Following the 48 h incubation period, the number of cells in each sample were counted and smears were made. Monoclonal antibodies to the different early antigen (EA) components and VCA were than added to the cells, incubated and washed. This was followed by the addition of a fluorescein conjugated rabbit anti mouse Ig antibodies. The number of fluorescence positive cells in the smears were counted and the total number of cells in the cultures positive for EA or VCA were then calculated and compared.
# [3] = system: VZV (Ellen); assay: CPE inhibition assay VZV (Ellen) in HFF cells; type: cell-based, varicella zoster virus; settings: for EC50 / pEC50: Human alphaherpesvirus 3, HFF; for pEC50: Table 3b
# Protocol: as §1
# [4] = system: HSV-1 (KOSSB) HSV-TK−; assay: microbe, parasite or virus in culture; type: cell-based, Herpes simplex virus type-1; settings: for HSV-1 (KOSSB) HSV-TK− EC50: Table 4
# Protocol: as §1, with “The” for “Cytopathic effect (CPE) inhibition assays for HSV-1, HSV-2, HCMV and VZV were performed as follows: Low passage human foreskin fibroblasts (HFF) cells were seeded into 96 well tissue culture plates 24 h prior to use at a cell concentration of 2.5×10^4 cells per mL in 0.1 mL of minimal essential medium (MEM) supplemented with 10% fetal bovine serum (FBS). The”
# [5] = Cell cytotoxicity in Vero cells; type: cell-based; settings: African green monkey, Vero cells
# Protocol: (§2) The compounds were assayed for a) their ability to inhibit DHBV DNA replication in duck hepatocytes, b) their ability to inhibit HBV DNA replication in HepG2 2.2.15 cells, c) the cell cytotoxicity in Vero cells, the cell viability in HFF cells, d) the cell proliferation in HFF cells, and e) the T cell proliferation (purified T cells, PHA stimulated). 3-TC was used as a control.
# [6] = system: HSV-1 (E-377); assay: CPE inhibition assay HSV-1 (E-377) in HFF cells; type: cell-based, Herpes simplex virus type-1; settings: for pEC50: Table 3b
# Protocol: as §1
# [7] = system: HSV-2 (MS); assay: CPE inhibition assay HSV-2 (MS) in HFF cells; type: cell-based, Herpes simplex virus type-2; settings: for pEC50: Table 3b
# Protocol: as §1
# [8] = system: duck hepatitis B virus (DHBV); assay: DHBV DNA replication in primary duck hepatocytes (dot blot hybridization); type: cell-based; settings: for inhibition at 10 µg/mL / EC50: Duck hepatitis B virus, Hepatocyte; for inhibition at 10 µg/mL: read-out: % Inh. of DHBV DNA in duck hepatocytes @ 10 μg/ml; for EC50: Table 2, value in brackets, read-out: DHBV DNA in duck hepatocytes [EC50, μg/ml]
# Protocol: A series of compounds were synthesized and assayed for activity against duck hepatitis B virus (DHBV). […] Test compounds were added to the hepatocyte cultures on day 2 and maintained in culture with media changed every second day until day 12. Cell were harvested at day 14 and lysed with buffer containing 1% SDS. DNA was isolated from the lysate and dot blot hybridization was performed using a DHBV (32P) DNA probe. […]
# as §2
# [9] = system: human HBV; assay: HBV DNA replication in HepG2 2.2.15 cells; type: cell-based, hepatitis B virus; settings: for pEC50: Table 3a, read-out: % Inhibition of human HBV DNA replication in HepG2 2.2.15 cells EC50
# Protocol: as §2, with “control. Additional compounds described below in the Preparative Examples section were also tested, and the results are shown in Tables 2-4 below. The reference numbers for the compounds are found in the Preparative Examples.” for “control.”
# [10] = system: HCMV (AD169); assay: CPE inhibition assay HCMV (AD169) in HFF cells; type: cell-based, human cytomegalovirus; settings: for EC50: Human betaherpesvirus 5, AD169, HFF
# Protocol: as §1
molecule,measurement,setting,value
"Nc1nc2c(ncn2COCCO)c(=O)[nH]1 [Acyclovir, acyclovir, reference compound]",EC50,[1]; Human alphaherpesvirus 1,< 1 µg/mL
same,EBV EC90,"[2]; Table 4, in parentheses",> 50 µg/mL
same,EBV EC90,"[2]; Table 5, in parentheses",(EC90 = >50) μg/ml
same,EC50,"[2]; human gammaherpesvirus 4, Table 3a, read-out: EBV EC50",1 µg/mL
same,EC50,"[2]; human gammaherpesvirus 4, Table 4, read-out: EBV EC50",1.4 µg/mL
same,EC50,"[2]; human gammaherpesvirus 4, Table 5, read-out: EBV EC50",1 µg/mL
same,EC50,"[2]; human gammaherpesvirus 4, running text, read-out: anti EBV activity EC50",1 µg/mL
same,EC90,"[2]; Table 3a, in parentheses, read-out: EBV EC90",> 50 µg/mL
same,EC90,[2]; read-out: anti EBV activity EC90,> 50 µg/mL
same,EC50,[3]; Table 2,0.6 µg/mL
same,EC50,[3]; Table 3a,0.03 µg/mL
same,pEC50,[3],5.40
same,EC50,[3]; Table 4,0.08 µg/mL
same,EC50,"[4]; Human alphaherpesvirus 1, read-out: HSV-1 (KOSSB) HSV-TK− EC50, μg/ml",> 100 µg/mL
same,CC50,[5]; Table 3b,> 400 µM
same,pEC50,"[6]; Human alphaherpesvirus 1, HFF",5.51
same,EC50,"[6]; Human alphaherpesvirus 1, HFF, Table 4",0.2 µg/mL
same,pEC50,"[7]; Human alphaherpesvirus 2, HFF",5.21
same,EC50,"[7]; Human alphaherpesvirus 2, HFF, Table 4",0.6 µg/mL
"C=Cc1cn(COC(CO)CO)c(=O)[nH]c1=O [Compound 9a, 1-[(2-Hydroxy-1-(hydroxymethyl)ethoxy)methyl]-5-vinyluracil]",CC50,[5]; Table 2,> 100 µg/mL
same,inhibition at 10 µg/mL,[8],82%
same,EC50,[8],0.3 to 1 µg/mL
"O=c1[nH]c(=O)n(CCC(CO)CO)cc1I [Compound 19, 1-[4-Hydroxy-3-(hydroxymethyl)-1-butyl]-5-iodouracil]",inhibition at 0.01 µg/mL,"[9]; Hepatitis B virus, HepG2 2.2.15, read-out: % Inh. of human HBV DNA replication in HepG2 2.2.15 cells @ 0.01 μg/ml (right)",18.1%
same,inhibition at 0.1 µg/mL,"[9]; Hepatitis B virus, HepG2 2.2.15, read-out: % Inh. of human HBV DNA replication in HepG2 2.2.15 cells @ 0.1 μg/ml (left)",69.1%
same,CC50,[5]; Table 2,> 200 µg/mL
same,inhibition at 10 µg/mL,[8],65.2%
"C=Cc1cn(CCC(CO)CO)c(=O)[nH]c1=O [Compound 20, 1-[4-Hydroxy-3-(hydroxymethyl)-1-butyl]-5-vinyluracil]",CC50,[5]; Table 2,> 100 µg/mL
same,inhibition at 10 µg/mL,[8],80%
same,EC50,[8],1 to 3 µg/mL
"Nc1nc(O)c2ncn(COC(CO)CO)c2n1 [Gancyclovir, ganciclovir, reference compound]",EC50,[10]; Table 2,0.06 µg/mL
same,EC50,"[10]; Table 4, read-out: HCMV (AD-169) EC50",0.1 µg/mL
same,EC50,[3]; Table 4,0.1 µg/mL
"[N-]=[N+]=NC1C(Cl)C(=O)NC(=O)N1[C@H]1C[C@H](O)[C@@H](CO)O1 (stereo partly shown) [RB-10, 5-Chloro-6-azido-5,6-dihydro-2′-deoxyuridine]",pEC50,[3],5.01
same,CC50,[5]; Table 3b,> 327 µM
same,pEC50,"[6]; Human alphaherpesvirus 1, HFF",6.48
same,pEC50,"[7]; Human alphaherpesvirus 2, HFF",5.80
"(5R,6R) 5-fluoro-O^6-5′-cyclo-5,6-dihydro-2′-deoxythymidine [Compound R-25]",HSV-1 (KOS) HSV-TK+ EC50,[1],>25 µg/mL
same,HCMV (AD-169) EC50,[10]; Table 4,>100 µg/mL
same,EBV EC50,[2],0.6 to 3.0 µg/mL
same,VZV (Ellen) EC50,[3]; Table 4,>100 µg/mL
same,HSV-1 (KOSSB) HSV-TK− EC50,[4],>50 µg/mL
same,"HSV-1 (E-377) EC50, μg/ml",[6]; Table 4,>100 μg/ml
same,HSV-2 (MS) EC50,[7]; Table 4,>100 µg/mL
"(5R,6S) 5-fluoro-O^6-5′-cyclo-5,6-dihydro-2′-deoxythymidine [Compound R-24]",HSV-1 (KOS) HSV-TK+ EC50,[1],>25 µg/mL
same,HCMV (AD-169) EC50,[10]; Table 4,>100 µg/mL
same,EBV EC50,[2],0.6 to 2.8 µg/mL
same,EBV EC90,"[2]; Table 4, in parentheses",(EC90 = 3.8) μg/ml
same,VZV (Ellen) EC50,[3]; Table 4,>100 µg/mL
same,HSV-1 (KOSSB) HSV-TK− EC50,[4],>50 µg/mL
same,"HSV-1 (E-377) EC50, μg/ml",[6]; Table 4,>100 μg/ml
same,HSV-2 (MS) EC50,[7]; Table 4,>100 µg/mL
"(5S,6R) 5-fluoro-O^6-5′-cyclo-5,6-dihydro-2′-deoxythymidine [Compound R-23]",HSV-1 (KOS) HSV-TK+ EC50,[1],>25 µg/mL
same,HCMV (AD-169) EC50,[10]; Table 4,>100 µg/mL
same,EBV EC50,[2],0.1 to 1.4 µg/mL
same,EBV EC90,"[2]; Table 4, in parentheses",(EC90 = 7.3) μg/ml
same,VZV (Ellen) EC50,[3]; Table 4,>100 µg/mL
same,HSV-1 (KOSSB) HSV-TK− EC50,[4],>50 µg/mL
same,"HSV-1 (E-377) EC50, μg/ml",[6]; Table 4,>100 μg/ml
same,HSV-2 (MS) EC50,[7]; Table 4,>100 µg/mL
"(5S,6S)5-Bromo-O^6-5′-cyclo-5,6-dihydro-5-ethyl-2′-deoxyuridine [Compound R-9]",HSV-1 (KOS) HSV-TK+ EC50,[1],1 to 5 µg/mL
same,HSV-1 (KOSSB) HSV-TK− EC50,[4],10 to 25 µg/mL
same,"HSV-1 (E-377) EC50, μg/ml",[6]; Table 4,4.0 μg/ml
same,HSV-2 (MS) EC50,[7]; Table 4,10 µg/mL
"[(+)(6R)]-5-bromo-6-ethoxy-5,6dihydro-3′-fluoro-2′,3′-dideoxyuridine [RB-5]",pEC50,[9],5.30
same,% Inhibition of DHBV DNA in duck hepatocytes EC50 μM,[8]; Table 3a,not active
"[(−)-(6S)]-5-bromo-6-ethoxy-5,6-dihydro-3′-fluoro-2′,3′-dideoxyuridine [RB-4]",pEC50,[9],5.52
same,pEC50,"[8]; Table 3a, read-out: % Inhibition of DHBV DNA in duck hepatocytes EC50",< 5.00
